{"source": "patent US20130266636A1", "about": "“METHODS FOR BLOCKING CELL PROLIFERATION AND TREATING DISEASES AND CONDITIONS RESPONSIVE TO CELL GROWTH INHIBITION” (THE REGENTS OF THE UNIVERSITY OF CALIFORNIA, priority 2010, published 2013)", "assay_in_all_cases": "NCI-60 panel growth inhibition", "assay_type_in_all_cases": "cell-based", "key": {"[1]": {"test_system": "LOX IMVI", "conditions": "Homo sapiens, Melanoma, mutated RAS No, mutated BRAF Yes", "description": "(§1) Table 1 summarizes KG5's effect in 60 NCI cancer cell lines: the NCI-60 panel showing the half maximal growth inhibitory concentration of KG5 and the RAS and BRAF status in 60 human cancer cell lines."}, "[2]": {"test_system": "SK-MEL-5", "conditions": "Homo sapiens, Melanoma, mutated RAS No, mutated BRAF Yes", "description": "as §1"}, "[3]": {"test_system": "T-47D", "conditions": "Homo sapiens, T47D; Breast Cancer; mutated RAS Yes; mutated BRAF No", "description": "as §1"}, "[4]": {"test_system": "K-562", "conditions": "Homo sapiens, K562; Leukemia; mutated RAS No; mutated BRAF No", "description": "as §1"}, "[5]": {"test_system": "786-0", "conditions": "Homo sapiens, Renal Cancer, mutated RAS No, mutated BRAF No", "description": "as §1"}, "[6]": {"test_system": "CCRF-CEM", "conditions": "Homo sapiens, Leukemia, mutated RAS Yes, mutated BRAF No", "description": "as §1"}, "[7]": {"test_system": "U251", "conditions": "Homo sapiens, U-251; CNS Cancer; mutated RAS No; mutated BRAF No", "description": "as §1"}, "[8]": {"test_system": "HS 578T", "conditions": "Homo sapiens, Breast Cancer, mutated RAS Yes, mutated BRAF No", "description": "as §1"}, "[9]": {"test_system": "ACHN", "conditions": "Homo sapiens, Renal Cancer, mutated RAS No, mutated BRAF No", "description": "as §1"}, "[10]": {"test_system": "MDA-MB-435", "conditions": "Homo sapiens, Melanoma, mutated RAS No, mutated BRAF Yes", "description": "as §1"}, "[11]": {"test_system": "RXF 393", "conditions": "Homo sapiens, Renal Cancer, mutated RAS No, mutated BRAF No", "description": "as §1"}, "[12]": {"test_system": "MDA-MB-468", "conditions": "Homo sapiens, Breast Cancer, mutated RAS No, mutated BRAF No", "description": "as §1"}, "[13]": {"test_system": "OVCAR-5", "conditions": "Homo sapiens, Ovarian Cancer, mutated RAS Yes, mutated BRAF No", "description": "as §1"}, "[14]": {"test_system": "BT-549", "conditions": "Homo sapiens, Breast Cancer, mutated RAS No, mutated BRAF No", "description": "as §1"}, "[15]": {"test_system": "SK-OV-3", "conditions": "Homo sapiens, Ovarian Cancer, mutated RAS No, mutated BRAF No", "description": "as §1"}, "[16]": {"test_system": "SNB-75", "conditions": "Homo sapiens, CNS Cancer, mutated RAS No, mutated BRAF No", "description": "as §1"}, "[17]": {"test_system": "HT29", "conditions": "Homo sapiens, HT-29; Colon Cancer; mutated RAS No; mutated BRAF Yes", "description": "as §1"}, "[18]": {"test_system": "PC-3", "conditions": "Homo sapiens, Prostate Cancer, mutated RAS No, mutated BRAF No", "description": "as §1"}, "[19]": {"test_system": "HCT-116", "conditions": "Homo sapiens, Colon Cancer, mutated RAS Yes", "description": "as §1"}, "[20]": {"test_system": "OVCAR-8", "conditions": "Homo sapiens, Ovarian Cancer, mutated RAS No, mutated BRAF No", "description": "as §1"}, "[21]": {"test_system": "UACC-257", "conditions": "Homo sapiens, Melanoma, mutated RAS No, mutated BRAF Yes", "description": "as §1"}, "[22]": {"test_system": "M14", "conditions": "Homo sapiens, Melanoma, mutated RAS No, mutated BRAF Yes", "description": "as §1"}, "[23]": {"test_system": "TK-10", "conditions": "Homo sapiens, Renal Cancer, mutated RAS No, mutated BRAF No", "description": "as §1"}, "[24]": {"test_system": "NCI-H23", "conditions": "Homo sapiens, NSC Lung Cancer, mutated RAS Yes, mutated BRAF No", "description": "as §1"}, "[25]": {"test_system": "MALME-3M", "conditions": "Homo sapiens, Melanoma, mutated RAS No, mutated BRAF Yes", "description": "as §1"}, "[26]": {"test_system": "UO-31", "conditions": "Homo sapiens, Renal Cancer, mutated RAS No, mutated BRAF No", "description": "as §1"}, "[27]": {"test_system": "HCT-15", "conditions": "Homo sapiens, Colon Cancer, mutated RAS Yes, mutated BRAF Yes", "description": "as §1"}, "[28]": {"test_system": "NCI-H322M", "conditions": "Homo sapiens, NSC Lung Cancer, mutated RAS No, mutated BRAF No", "description": "as §1"}, "[29]": {"test_system": "A549/ATCC", "conditions": "Homo sapiens, NSC Lung Cancer, mutated RAS Yes, mutated BRAF No", "description": "as §1"}, "[30]": {"test_system": "SW-620", "conditions": "Homo sapiens, Colon Cancer, mutated RAS No, mutated BRAF No", "description": "as §1"}, "[31]": {"test_system": "COLO 205", "conditions": "Homo sapiens, Colon Cancer, mutated RAS Yes, mutated BRAF No", "description": "as §1"}, "[32]": {"test_system": "UACC-62", "conditions": "Homo sapiens, Melanoma, mutated RAS No, mutated BRAF Yes", "description": "as §1"}}}
{"smiles": "CSc1nc(N)cc(Oc2ccc(-c3nnc(Nc4cccc(C(F)(F)F)c4)[nH]3)cc2)n1", "note": "[KG5]", "values": [{"measurement": "GI50", "setting": "[1]", "result": 851, "unit": "nM"}, {"measurement": "GI50", "setting": "[2]", "result": 389, "unit": "nM"}, {"measurement": "GI50", "setting": "[3]", "result": 347, "unit": "nM"}, {"measurement": "GI50", "setting": "[4]", "result": 513, "unit": "nM"}, {"measurement": "GI50", "setting": "[5]", "result": 490, "unit": "nM"}, {"measurement": "GI50", "setting": "[6]", "result": 380, "unit": "nM"}, {"measurement": "GI50", "setting": "[7]", "result": 468, "unit": "nM"}, {"measurement": "GI50", "setting": "[8]", "result": 437, "unit": "nM"}, {"measurement": "GI50", "setting": "[9]", "result": 851, "unit": "nM"}, {"measurement": "GI50", "setting": "[10]", "result": 195, "unit": "nM"}, {"measurement": "GI50", "setting": "[11]", "result": 166, "unit": "nM"}, {"measurement": "GI50", "setting": "[12]", "result": 191, "unit": "nM"}, {"measurement": "GI50", "setting": "[13]", "result": 1550, "unit": "nM"}, {"measurement": "GI50", "setting": "[14]", "result": 708, "unit": "nM"}, {"measurement": "GI50", "setting": "[15]", "result": 562, "unit": "nM"}, {"measurement": "GI50", "setting": "[16]", "result": 245, "unit": "nM"}, {"measurement": "GI50", "setting": "[17]", "result": 363, "unit": "nM"}, {"measurement": "GI50", "setting": "[18]", "result": 282, "unit": "nM"}, {"measurement": "GI50", "setting": "[19]", "result": 457, "unit": "nM"}, {"measurement": "GI50", "setting": "[20]", "result": 479, "unit": "nM"}, {"measurement": "GI50", "setting": "[21]", "result": 407, "unit": "nM"}, {"measurement": "GI50", "setting": "[22]", "result": 347, "unit": "nM"}, {"measurement": "GI50", "setting": "[23]", "result": 692, "unit": "nM"}, {"measurement": "GI50", "setting": "[24]", "result": 525, "unit": "nM"}, {"measurement": "GI50", "setting": "[25]", "result": 316, "unit": "nM"}, {"measurement": "GI50", "setting": "[26]", "result": 513, "unit": "nM"}, {"measurement": "GI50", "setting": "[27]", "result": 490, "unit": "nM"}, {"measurement": "GI50", "setting": "[28]", "result": 525, "unit": "nM"}, {"measurement": "GI50", "setting": "[29]", "result": 501, "unit": "nM"}, {"measurement": "GI50", "setting": "[30]", "result": 617, "unit": "nM"}, {"measurement": "GI50", "setting": "[31]", "result": 407, "unit": "nM"}, {"measurement": "GI50", "setting": "[32]", "result": 501, "unit": "nM"}]}
